In US6387909B1, “Thienopyranecarboxamide derivatives” (Recordati S.A. Chemical and Pharmaceutical Company, priority 1999, dated 2002):
Read-outs that look alike come from different tables or passages of the source.

Tests used:
[1] = system: prostatic urethral contractions induced by noradrenaline; details: dog, i.v.; data from Leonardi et al. 1997; cited from earlier work
[2] = system: diastolic blood pressure; details: dog, i.v.; data from Leonardi et al. 1997; cited from earlier work
[3] = system: diastolic blood pressure; assay: Blood pressure in anaesthetized dogs after intravenous administration; format: in vivo; details: dog, i.v.
Description: (§1) The experiments were performed according to the method of Imagawa et al. (J. Pharmacol. Methods, 22:103-111, 1989), with substantial modifications, as follows: adult male beagle dogs, weighing 8-10 kg, were anaesthetized with pentobarbital sodium (30 mg/kg i.v. and 2 mg/kg/h i.v.), intubated and spontaneously ventilated with room air. In order to monitor systemic blood pressure (BP), a polyethylene (PE) catheter was introduced into the aortic arch through the left femoral artery. A collateral of the left femoral vein was cannulated for infusion of anaesthetic, and the right femoral vein was cannulated for administration of compounds. For intraarterial (i.a.) injection of noradrenaline (NA), a PE catheter was introduced into the lower portion of the abdominal aorta via the right external iliac artery. Through such procedure, NA was selectively distributed to the lower urinary tract. A paramedian vertical suprapubic incision extending from the base of the pelvis to the mid-abdominal region was made and the bladder and the prostate were exposed. The bladder was manually emptied with a syringe. Prostatic urethral pressure was monitored with a Mikro-tip catheter (5F) introduced into the bladder via the external urethral meatus, and withdrawn until the pressure transducer was positioned in the prostatic region of the urethra. A ligature was secured between the neck of the bladder and urethra to isolate the response of the latter and to avoid any interaction with the bladder. Another ligature was put around the Mikro-tip catheter at the external meatus, to secure the catheter itself.
(§2) After a stabilizing period following the surgical procedure (30 minutes), in which arterial and prostatic urethral pressures were continuously monitored as basal values, i.a. administration of NA was made at intervals of 20 minutes.
(§3) The NA doses were chosen to produce an increase of at least 100% in urethral pressure. The test compounds were administered intravenously in a cumulative manner with intervals of 15-20 minutes between administrations. […]

[4] = molecular target: T1, recombinant α1b-adrenoceptor (Homo sapiens, UniProt P35368); assay: Radioligand binding ([3H]prazosin) to cloned α1b adrenoceptor; details: read-out: Affinity (Ki) α1b
T1 construct: expressed in transfected cells
T1 sequence (P35368 1-520): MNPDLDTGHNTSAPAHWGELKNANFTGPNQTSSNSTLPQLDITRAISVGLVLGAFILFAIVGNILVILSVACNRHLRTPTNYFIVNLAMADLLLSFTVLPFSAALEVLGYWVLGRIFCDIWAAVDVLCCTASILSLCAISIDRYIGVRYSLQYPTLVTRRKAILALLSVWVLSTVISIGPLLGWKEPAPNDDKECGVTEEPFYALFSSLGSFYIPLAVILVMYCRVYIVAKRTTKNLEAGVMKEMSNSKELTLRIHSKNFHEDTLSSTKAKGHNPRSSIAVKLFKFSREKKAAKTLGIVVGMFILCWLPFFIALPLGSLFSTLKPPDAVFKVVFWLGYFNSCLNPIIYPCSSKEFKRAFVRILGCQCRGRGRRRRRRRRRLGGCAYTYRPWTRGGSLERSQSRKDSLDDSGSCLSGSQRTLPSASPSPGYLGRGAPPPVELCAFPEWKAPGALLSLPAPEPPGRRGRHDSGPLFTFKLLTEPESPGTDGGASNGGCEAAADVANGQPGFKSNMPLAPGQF
Description: (§4) Determination of affinity for cloned subtypes of the α1-adrenoceptor was performed in membranes from cells transfected by electroporation with DNA expressing the genes encoding each α1-adrenoceptor subtype.
(§5) Non-specific binding was determined in the presence of 10 μM phentolamine. Incubation was stopped by addition of ice-cold Tris buffer and rapid filtration through Schleicher & Schuell GF52 filters that had been pretreated with 0.2%-polyethyleneimine.
(§6) Data were expressed as mean of Ki.

[5] = molecular target: T2, recombinant α1d-adrenoceptor (Homo sapiens, UniProt P25100); assay: Radioligand binding ([3H]prazosin) to cloned α1d adrenoceptor; details: read-out: Affinity (Ki) α1d
T2 construct: expressed in transfected cells
T2 sequence (P25100 1-572): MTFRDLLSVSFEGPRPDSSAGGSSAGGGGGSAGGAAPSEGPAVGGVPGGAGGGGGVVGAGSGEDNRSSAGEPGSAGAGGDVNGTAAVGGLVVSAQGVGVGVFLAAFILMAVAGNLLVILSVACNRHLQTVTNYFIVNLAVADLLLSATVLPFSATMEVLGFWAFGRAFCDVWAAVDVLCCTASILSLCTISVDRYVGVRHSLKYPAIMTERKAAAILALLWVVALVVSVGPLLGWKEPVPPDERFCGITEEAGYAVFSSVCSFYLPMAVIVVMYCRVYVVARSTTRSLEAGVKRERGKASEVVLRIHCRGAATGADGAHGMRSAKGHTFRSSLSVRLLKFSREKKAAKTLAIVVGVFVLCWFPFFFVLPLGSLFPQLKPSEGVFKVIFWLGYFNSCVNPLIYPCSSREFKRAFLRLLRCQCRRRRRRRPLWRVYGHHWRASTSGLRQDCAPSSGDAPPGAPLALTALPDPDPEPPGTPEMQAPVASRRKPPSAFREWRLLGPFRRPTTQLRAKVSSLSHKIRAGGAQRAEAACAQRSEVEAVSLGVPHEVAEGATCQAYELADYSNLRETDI
Description: as §4, §5, §6

[6] = system: prostatic urethral contractions induced by noradrenaline; assay: Urethral contractions induced by noradrenaline injection in anaesthetized dogs after intravenous administration; format: in vivo; details: dog, i.v.
Description: as §1, §2, §3

[7] = molecular target: T3, recombinant α1a-adrenoceptor (Homo sapiens, UniProt P35348); assay: Radioligand binding ([3H]prazosin) to cloned α1a adrenoceptor; details: read-out: Affinity (Ki) α1a
T3 construct: expressed in transfected cells
T3 sequence (P35348 1-466): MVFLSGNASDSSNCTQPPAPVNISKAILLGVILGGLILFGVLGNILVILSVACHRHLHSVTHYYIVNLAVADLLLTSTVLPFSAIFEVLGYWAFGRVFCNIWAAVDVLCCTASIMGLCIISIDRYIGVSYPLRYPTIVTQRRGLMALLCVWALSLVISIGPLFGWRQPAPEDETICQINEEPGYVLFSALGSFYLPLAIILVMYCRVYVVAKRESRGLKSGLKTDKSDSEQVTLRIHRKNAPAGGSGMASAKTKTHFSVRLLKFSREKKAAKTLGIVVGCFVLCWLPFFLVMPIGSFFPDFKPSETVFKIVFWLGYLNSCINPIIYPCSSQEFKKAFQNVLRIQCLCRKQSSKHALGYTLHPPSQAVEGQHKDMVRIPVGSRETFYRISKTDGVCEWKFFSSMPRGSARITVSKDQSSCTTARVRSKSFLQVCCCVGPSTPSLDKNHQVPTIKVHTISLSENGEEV
Description: as §4, §5, §6

[8] = molecular target: T4, α1L adrenoceptor (Oryctolagus cuniculus, UniProt O02824); assay: Functional antagonism of noradrenaline-induced contractions of rabbit aorta pretreated with chloroethylclonidine; format: biochemical; details: NA-induced contractions
T4 sequence (O02824 1-466): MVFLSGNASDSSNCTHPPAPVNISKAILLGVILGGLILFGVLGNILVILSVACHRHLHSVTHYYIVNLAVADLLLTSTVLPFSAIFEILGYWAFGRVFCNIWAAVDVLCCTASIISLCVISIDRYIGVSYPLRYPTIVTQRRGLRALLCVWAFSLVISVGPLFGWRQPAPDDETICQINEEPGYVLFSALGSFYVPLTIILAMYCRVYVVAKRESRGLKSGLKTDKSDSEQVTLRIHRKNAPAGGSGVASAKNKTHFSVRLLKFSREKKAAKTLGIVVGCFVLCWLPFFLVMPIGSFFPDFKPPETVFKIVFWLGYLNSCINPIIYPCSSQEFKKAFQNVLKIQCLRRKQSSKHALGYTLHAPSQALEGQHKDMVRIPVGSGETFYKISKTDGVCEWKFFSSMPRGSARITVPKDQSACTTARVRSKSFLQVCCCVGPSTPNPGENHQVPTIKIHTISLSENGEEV
Description: Adult male New Zealand rabbits were sacrificed by cervical dislocation. The aorta was removed, placed in Krebs-Henseleit buffer and dissected free of adhering tissue. […] Desmethylimipramine (0.1 μM) and corticosterone (1 μM) to block neuronal and extraneuronal uptake of NA, (±)-propranol (1 μM) to block β adrenoceptors and yohimbine (0.1 μM) to block α2 adrenoceptors were added to the buffer.
The preparations were equilibrated for 60 minutes and then primed every 30 minutes with 10 μM NA for three times. The aortic rings were then incubated with the alkylating agent chloroethylclonidine (50 μM) for 30 minutes and then washed extensively three times, over a 30 min period before constructing the NA-concentration/response curve. Following washing, tissue was re-equilibrated for 45 min. Test drug was added and after 30 minutes, a second cumulative-NA-concentration/response curve was constructed. Each antagonist concentration was tested using 2-3 aortic rings from different rabbits.
Dose ratios (i.e., the ratio between the concentrations of noradrenaline required to produce half-maximal response in the presence and in the absence of the test antagonist) were calculated at each concentration of the compounds. The logarithm of these dose ratio −1 was plotted against the logarithm of the compound concentrations (Schild plot) to evaluate the affinity constant Kb.
When only one or two concentrations of the test compounds were utilised, the apparent Kb value was calculated using the formula: Kb=[B]/(DOSE RATIO-1), where B is the antagonist concentration.

[9] = molecular target: T5, human 5-HT1A-serotoninergic receptor (Homo sapiens, UniProt P08908); assay: Radioligand binding ([3H]8-OH-DPAT) to cloned 5-HT1A receptor in HeLa cell membranes; details: read-out: Affinity (Ki) 5-HT1A
T5 construct: expressed in transfected cells; host or cells: HeLa
T5 sequence (P08908 1-422): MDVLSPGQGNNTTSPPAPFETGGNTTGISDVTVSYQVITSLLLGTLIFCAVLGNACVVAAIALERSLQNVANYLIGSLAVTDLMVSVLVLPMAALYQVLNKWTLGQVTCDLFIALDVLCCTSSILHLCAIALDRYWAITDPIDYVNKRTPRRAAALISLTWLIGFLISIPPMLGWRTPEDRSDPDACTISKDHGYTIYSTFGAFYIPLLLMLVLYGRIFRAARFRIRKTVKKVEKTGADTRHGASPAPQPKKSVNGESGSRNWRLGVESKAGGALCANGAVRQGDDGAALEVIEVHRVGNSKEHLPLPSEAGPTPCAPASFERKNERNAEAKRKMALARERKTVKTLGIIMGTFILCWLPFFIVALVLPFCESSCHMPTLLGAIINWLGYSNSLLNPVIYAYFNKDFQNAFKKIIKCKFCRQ
Description: HeLa cells were grown as monolayers in Dulbecco's modified Eagle's medium (DMEM), supplemented with 10% fetal calf serum and gentamicin (100 μg/mL), at 37° C. in 5% CO2. The cells were detached from the growth flask at 95% confluence by a cell scraper and were lysed in a buffer containing ice cold 5 mM Tris, 5 mM EDTA (pH 7.4). The homogenates were centrifuged at 40,000×g for 20 minutes and the membranes were resuspended in a small volume of ice-cold buffer containing 5 mM Tris and 5 mM, EDTA (pH 7.4), and immediately frozen and stored at −70° C. until use.
Non-specific binding was determined in the presence of 10 μM 5-HT. Incubation was stopped by addition of ice-cold Tris buffer and rapid filtration through Schleicher & Schuell GF52 filters that had been pretreated with 0.2%-polyethyleneimine.
as §6

SMILES | UC ID50 NA (dose inhibiting by 50% the urethral contractions induced by noradrenaline) [1] [mg/kg] | DBP ED25 (dose inducing a 25% decrease in diastolic blood pressure) [2] [mg/kg] | DBP ED25 (dose inducing a 25% decrease in diastolic blood pressure) [3] [mg/kg] | Ki [4] [nM] | Ki [5] [nM] | UC ID50 NA (dose inhibiting by 50% the urethral contractions induced by noradrenaline) [6] [mg/kg] | Ki [7] [nM] | pKb, functional affinity for the α1L adrenoceptor subtype [8] | Ki [9] [nM]
COc1ccccc1N1CCN(CCCNC(=O)c2cccc3c(=O)c(C)c(-c4ccccc4)oc23)CC1 [Compound A] | 0.0024 | 0.243 | – | – | – | – | – | – | –
COc1ccc(Cl)cc1N1CCN(CCCNC(=O)c2csc3c(=O)cc(-c4ccccc4)oc23)CC1 [Example 1, N-{3-[4-(5-Chloro-2-methoxyphenyl)1-piperazinyl]propyl}-7-oxo-5-phenyl-7H-thieno[3,2-b]Pyran-3-carboxamide] | – | – | 0.28 | 2.53 | 4.12 | 0.0053 | 0.58 | – | –
COc1ccccc1N1CCN(CCCNC(=O)c2csc3c(=O)cc(C(F)(F)F)oc23)CC1 [Example 4, N-{3-[4-(2-Methoxyphenyl)-1-piperazinyl]propyl}-7-oxo-5-trifluoromethyl-7H-thieno[3,2b]pyran-3-carboxamide] | – | – | – | 23.2 | 3.6 | – | 0.6 | 7.92 | 26.2
COc1ccc(OCC(F)(F)F)cc1N1CCN(CCCNC(=O)c2csc3c(=O)cc(-c4ccccc4)oc23)CC1 [Example 6, N-{3-[4-[2-Methoxy-5-(2,2,2-trifluoroethoxy)phenyl]-1-piperazinyl]propyl}-7-oxo-5-phenyl7H-thieno[3,2-b]pyran-3-carboxamide] | – | – | – | 39.3 | 48.2 | – | 3.19 | – | 1080
O=C(NCCCN1CCN(c2ccc(F)cc2OCC(F)(F)F)CC1)c1csc2c(=O)cc(-c3ccccc3)oc12 [Example 7, N-{3-[4-[4-Fluoro-2-(2,2,2-trifluoroethoxy)phenyl]-1-piperazinyl]propyl}-7-oxo-5-phenyl-7H-thieno[3,2-b]pyran-3-carboxamide] | – | – | – | 3.47 | 2.45 | – | 0.17 | 8.66 | 88.5
